Laboratory results published in patent US11051515B2, “3-acyl-benzamides and their use as herbicides” (Bayer Aktiengesellschaft, priority 2017, dated 2021).

Legend:
VERPE [1] = assay: Pre-emergence action against VERPE; assay type: in vivo, Veronica persica; conditions: Dosage 320 g/ha, pre-emergence
How it was run: (§1)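 Seeds sown in sandy loam in wood-fiber pots and covered with soil. Greenhouse growth; visual damage scored after 3 weeks versus untreated controls (100% = dead, 0% = like control).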

AMARE [2] = assay: Pre-emergence action against AMARE; assay type: in vivo, Amaranthus retroflexus
How it was run: as §1

MATIN [3] = assay: Pre-emergence action against MATIN; assay type: in vivo, Matricaria inodora
How it was run: as §1

SETVI [4] = assay: Pre-emergence action against SETVI; assay type: in vivo, Setaria viridis; conditions: pre-emergence, dosage 320 g/ha, scored visually after 3 weeks vs untreated controls
How it was run: as §1

STEME [5] = assay: Post-emergence action against STEME; assay type: in vivo, Stellaria media; conditions: post-emergence, dosage 80 g/ha
How it was run: (§2)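 Post-emergence foliar spray on greenhouse plants at the one-leaf stage, using wettable-powder or emulsion-concentrate formulations in water (600 to […], plus 0.2% wetting agent). Damage scored by eye roughly 3 weeks later against untreated plants: 0% = like control, 100% = dead.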

ECHCG [6] = assay: Pre-emergence action against ECHCG; assay type: in vivo, Echinochloa crus-galli; conditions: pre-emergence, dosage 320 g/ha, scored visually after 3 weeks vs untreated controls
How it was run: as §1

ABUTH [7] = assay: Pre-emergence action against ABUTH; assay type: in vivo, Abutilon theophrasti
How it was run: as §1

LOLRI = assay: Pre-emergence action against LOLRI; assay type: in vivo, Lolium rigidum; conditions: dosage 320 g/ha, scored visually after 3 weeks vs untreated controls
From the text: Seeds of monocotyledonous and dicotyledonous weed plants and crop plants are laid out in sandy loam soil in wood-fiber pots and covered with soil. The compounds of the invention, formulated in the form of wettable powders (WP) or as emulsion concentrates (EC), are then applied to the surface of the covering soil in the form of an aqueous suspension or emulsion at a water application rate equating to […], with addition of 0.2% wetting agent. After the treatment, the pots are placed in a greenhouse and kept under good growth conditions for the trial plants. The damage to the test plants is scored visually after a test period of 3 weeks by comparison with untreated controls (herbicidal activity in percent (%): 100% activity=the plants have died, 0% activity=like control plants).

STEME [8] = assay: Pre-emergence action against STEME; assay type: in vivo, Stellaria media; conditions: Dosage 320 g/ha, pre-emergence
How it was run: as §1

CYPES [9] = assay: Pre-emergence action against CYPES; assay type: in vivo, Cyperus esculentus; conditions: pre-emergence, dosage 320 g/ha, scored visually after 3 weeks vs untreated controls
How it was run: as §1

VIOTR [10] = assay: Pre-emergence action against VIOTR; assay type: in vivo, Viola tricolor; conditions: for Herbicidal efficacy against VIOTR: 20 g of a.i./ha
How it was run: as §1

MATIN [11] = assay: Post-emergence action against MATIN; assay type: in vivo, Matricaria inodora; conditions: for Post-emergence action against MATIN (herbicidal action in percent): dosage 80 g/ha, visual assessment about 3 weeks after treatment vs untreated controls
How it was run: as §2

VERPE [12] = assay: Post-emergence action against VERPE; assay type: in vivo, Veronica persica; conditions: dosage 80 g/ha
How it was run: as §2

SETVI [13] = assay: Post-emergence action against SETVI; assay type: in vivo, Setaria viridis; conditions: post-emergence, dosage 80 g/ha, visual assessment about 3 weeks after treatment vs untreated controls
How it was run: as §2

VIOTR [14] = assay: Post-emergence action against VIOTR; assay type: in vivo, Viola tricolor; conditions: for Post-emergence action against VIOTR: dosage 80 g/ha
How it was run: as §2

AVEFA [15] = assay: Pre-emergence action against AVEFA; assay type: in vivo, Avena fatua; conditions: dosage 320 g/ha, scored visually after 3 weeks vs untreated controls
How it was run: as §1

ALOMY [16] = assay: Pre-emergence action against ALOMY; assay type: in vivo, Alopecurus myosuroides; conditions: dosage 320 g/ha; pre-emergence; scored visually after 3 weeks vs untreated controls; 100% = plants have died, 0% = like control plants
How it was run: as §1

PHBPU [17] = assay: Pre-emergence action against PHBPU; assay type: in vivo, Pharbitis purpurea; conditions: Dosage 320 g/ha, pre-emergence
How it was run: as §1

ECHCG [18] = assay: Post-emergence action against ECHCG; assay type: in vivo, Echinochloa crus-galli; conditions: post-emergence, dosage 80 g/ha, visual assessment about 3 weeks after treatment vs untreated controls
How it was run: as §2

PHBPU [19] = assay: Post-emergence action against PHBPU; assay type: in vivo, Pharbitis purpurea; conditions: post-emergence, dosage 80 g/ha
How it was run: as §2

ABUTH [20] = assay: Post-emergence action against ABUTH; assay type: in vivo, Abutilon theophrasti; conditions: for Post-emergence action against ABUTH (herbicidal action in percent): dosage 80 g/ha, visual assessment about 3 weeks after treatment vs untreated controls
How it was run: as §2

AMARE [21] = assay: Post-emergence action against AMARE; assay type: in vivo, Amaranthus retroflexus; conditions: post-emergence, dosage 80 g/ha, visual assessment about 3 weeks after treatment vs untreated controls
How it was run: as §2

POLCO [22] = assay: Pre-emergence action against POLCO; assay type: in vivo, Polygonum convolvulus; conditions: Dosage 320 g/ha, pre-emergence
How it was run: as §1

AVEFA [23] = assay: Post-emergence action against AVEFA; assay type: in vivo, Avena fatua; conditions: post-emergence, dosage 80 g/ha, visual assessment about 3 weeks after treatment vs untreated controls
How it was run: as §2

POLCO [24] = assay: Post-emergence action against POLCO; assay type: in vivo, Polygonum convolvulus; conditions: for Post-emergence action against POLCO: dosage 80 g/ha
How it was run: as §2

CYPES [25] = assay: Post-emergence action against CYPES; assay type: in vivo, Cyperus esculentus; conditions: for Post-emergence action against CYPES (herbicidal action in percent): dosage 80 g/ha, visual assessment about 3 weeks after treatment vs untreated controls
How it was run: as §2

ALOMY [26] = assay: Post-emergence action against ALOMY; assay type: in vivo, Alopecurus myosuroides
Protocol: Seeds of monocotyledonous and dicotyledonous weed and crop plants are laid out in sandy loam soil in wood-fiber pots, covered with soil and cultivated in a greenhouse under good growth conditions. 2 to 3 weeks after sowing, the test plants are treated at the one-leaf stage. The compounds of the invention, formulated in the form of wettable powders (WP) or as emulsion concentrates (EC), are then sprayed onto the green parts of the plants in the form of an aqueous suspension or emulsion at a water application rate equating to […], with addition of 0.2% wetting agent. After the test plants have been left to stand in the greenhouse under optimal growth conditions for about 3 weeks, the action of the preparations is assessed visually in comparison to untreated controls (herbicidal action in percent (%): 100% activity=the plants have died, 0% activity=like control plants). […] At the same time, inventive compounds leave Gramineae crops such as barley, wheat, rye, millet/Sorghum, corn or rice virtually undamaged when applied post-emergence, even at high active ingredient dosages. In addition, some substances are also harmless to dicotyledonous crops such as soya, cotton, oilseed rape, sugar beet or potatoes. Some of the compounds according to the invention have high selectivity and are therefore suitable for controlling unwanted vegetation in agricultural crops by the post-emergence method. The data of Tables B18 to B34 below illustrate, in an exemplary manner, the […] herbicidal action of the compounds according to the invention, the herbicidal activity being stated in percent.

[27] = pre-emergence, dosage 320 g/ha, scored visually after 3 weeks vs untreated controls
[28] = Table V17, post-emergence, 5 g of a.i./ha
[29] = Table V7, pre-emergence, 20 g of a.i./ha
[30] = Table V20, post-emergence, 80 g of a.i./ha

| Structure (SMILES) | Pre-emergence action against VERPE (VERPE [1]) [%] | Pre-emergence action against AMARE (herbicidal activity) (AMARE [2]; [27]) [%] | Post-emergence action against MATIN (herbicidal action in percent) (MATIN [11]) [%] | Post-emergence action against VERPE (VERPE [12]) | Pre-emergence action against MATIN (MATIN [3]; Dosage 320 g/ha, pre-emergence) [%] | SETVI (Table B8, pre-emergence herbicidal activity) (SETVI [4]) [%] | Post-emergence action against STEME (STEME [5]) | Post-emergence action against SETVI (herbicidal action in percent) (SETVI [13]) [%] | Pre-emergence action against ECHCG (herbicidal activity) (ECHCG [6]) [%] | Post-emergence action against VIOTR (VIOTR [14]) | Pre-emergence action against AVEFA (herbicidal activity) (AVEFA [15]) [%] | Pre-emergence action against ALOMY (herbicidal activity in percent) (ALOMY [16]) [%] | Pre-emergence action against ABUTH (herbicidal activity) (ABUTH [7]; [27]) [%] | Pre-emergence action against PHBPU (PHBPU [17]) [%] | Pre-emergence action against CYPES (herbicidal activity) (CYPES [9]) [%] | Post-emergence action against ECHCG (herbicidal action in percent) (ECHCG [18]) [%] | Post-emergence action against PHBPU (PHBPU [19]) | Post-emergence action against ABUTH (herbicidal action in percent) (ABUTH [20]) [%] | Post-emergence action against AMARE (herbicidal action in percent) (AMARE [21]) [%] | Pre-emergence action against VIOTR (VIOTR [10]; Dosage 320 g/ha, pre-emergence) [%] | other results |
| --- | --- | --- | --- | --- | --- | --- | --- | --- | --- | --- | --- | --- | --- | --- | --- | --- | --- | --- | --- | --- | --- |
| Cn1nnnc1NC(=O)c1ccc(C(F)(F)F)c(C(=O)C(C)(C)C)c1Cl [1-143] | – | – | – | – | – | – | – | – | – | – | – | – | – | – | – | – | – | – | – | – | pest or weed control at 320 g/ha (VERPE [1]; Veronica persica, 504 h): 100%; pest or weed control at 320 g/ha (AMARE [2]; Amaranthus retroflexus, 504 h, pre-emergence, dosage 320 g/ha, scored visually after 3 weeks vs untreated controls, read-out: Pre-emergence action against AMARE (herbicidal activity)): 100%; pest or weed control at 320 g/ha (MATIN [3]; Tripleurospermum inodorum, 504 h, Dosage 320 g/ha, pre-emergence): 100%; pest or weed control at 320 g/ha (SETVI [4]; Setaria viridis, 504 h, read-out: SETVI (Table B8, pre-emergence herbicidal activity)): 90%; pest or weed control at 80 g/ha (STEME [5]; Stellaria media, 504 h): 100%; pest or weed control at 320 g/ha (ECHCG [6]; Echinochloa crus-galli, 504 h, read-out: Pre-emergence action against ECHCG (herbicidal activity)): 100%; pest or weed control at 320 g/ha (ABUTH [7]; Abutilon theophrasti, 504 h, pre-emergence, dosage 320 g/ha, scored visually after 3 weeks vs untreated controls, read-out: Pre-emergence action against ABUTH (herbicidal activity)): 100%; pest or weed control at 320 g/ha (LOLRI; Lolium rigidum, 504 h, read-out: Pre-emergence action against LOLRI (herbicidal activity)): 80%; pest or weed control at 320 g/ha (STEME [8]; Stellaria media, 504 h): 100%; pest or weed control at 320 g/ha (CYPES [9]; Cyperus esculentus, 504 h, read-out: Pre-emergence action against CYPES (herbicidal activity)): 90%; pest or weed control at 320 g/ha (VIOTR [10]; Viola tricolor, 504 h, Dosage 320 g/ha, pre-emergence): 100% |
| CCn1nnnc1NC(=O)c1ccc(C(F)(F)F)c(C(=O)COC)c1Cl [2-144] | 100 | 100 | 90 | 90 | 100 | 100 | 100 | 100 | 100 | 100 | 100 | 100 | 100 | 100 | 100 | 100 | 100 | 90 | 100 | 100 | Pre-emergence action against LOLRI (herbicidal activity) (LOLRI): 100%; Pre-emergence action against STEME (STEME [8]): 100% |
| CCCn1nnnc1NC(=O)c1ccc(C(F)F)c(C(C)=O)c1Cl [3-164] | 100 | 100 | 100 | – | 100 | 100 | 100 | 100 | 100 | 100 | 100 | 90 | 100 | 90 | 100 | 100 | 100 | 90 | 100 | 100 | Pre-emergence action against POLCO (POLCO [22]): 100%; Pre-emergence action against LOLRI (herbicidal activity) (LOLRI): 90%; Pre-emergence action against STEME (STEME [8]): 100%; Post-emergence action against AVEFA (herbicidal action in percent) (AVEFA [23]): 80%; Post-emergence action against POLCO (POLCO [24]): 80; Post-emergence action against CYPES (herbicidal action in percent) (CYPES [25]): 90% |
| CCn1nnnc1NC(=O)c1ccc(S(C)(=O)=O)c(C(=O)C2CC2)c1C [2-9] | 100 | 100 | 100 | 100 | 100 | 100 | 100 | 90 | 100 | 100 | 100 | 90 | 100 | 90 | 90 | 90 | 100 | 90 | 100 | 100 | Herbicidal efficacy against AMARE (AMARE [2]; Table V13, pre-emergence, 20 g of a.i./ha): 100; Herbicidal efficacy against MATIN (MATIN [11]; [28]): 90; Herbicidal efficacy against MATIN (MATIN [3]; [29]): 80; Herbicidal efficacy against VIOTR (VIOTR [14]; [28]): 100; Pre-emergence action against POLCO (POLCO [22]): 80%; Herbicidal efficacy against ABUTH (ABUTH [7]; [29]): 100; Post-emergence action against AVEFA (herbicidal action in percent) (AVEFA [23]): 100%; Herbicidal efficacy against POLCO (POLCO [24]; [30]): 100; Post-emergence action against POLCO (POLCO [24]): 100; Post-emergence action against ALOMY (ALOMY [26]; Dosage 80 g/ha, post-emergence): 90%; Herbicidal efficacy against ALOMY (ALOMY [26]; [30]): 90; Herbicidal efficacy against ABUTH (ABUTH [20]; [30]): 90; Herbicidal efficacy against CYPES (CYPES [25]; [30]): 90; Post-emergence action against CYPES (herbicidal action in percent) (CYPES [25]): 90%; Herbicidal efficacy against VIOTR (VIOTR [10]; Table V7, pre-emergence): 90; Herbicidal efficacy against VIOTR (VIOTR [10]; Table V13, pre-emergence): 90 |
